Measured values published in patent US7655679B2, “Derivatives of 2-aminothiazoles and 2-amino-oxazoles, processes for their preparation and their use as pharmaceutical compositions” (Sanofi-Aventis, priority 2005, dated 2010).
Counter-ions that a name gives are not always drawn. Like-named read-outs stand apart in the source and are kept apart here.

Tests used:
human PPARalpha = biological target: T1, human PPARalpha (Homo sapiens, UniProt Q07869); assay: Cellular PPARalpha assay (luciferase reporter, stably transfected HEK cell line); type: cell-based; settings: GR-GAL4-humanPPARalpha-LBD
T1 construct: amino acids S167-Y468; expressed in transfected cells; host or cells: HEK (human embryo kidney) cells, stably transfected; plasmid pcDNA3
T1 sequence (Q07869 167-468): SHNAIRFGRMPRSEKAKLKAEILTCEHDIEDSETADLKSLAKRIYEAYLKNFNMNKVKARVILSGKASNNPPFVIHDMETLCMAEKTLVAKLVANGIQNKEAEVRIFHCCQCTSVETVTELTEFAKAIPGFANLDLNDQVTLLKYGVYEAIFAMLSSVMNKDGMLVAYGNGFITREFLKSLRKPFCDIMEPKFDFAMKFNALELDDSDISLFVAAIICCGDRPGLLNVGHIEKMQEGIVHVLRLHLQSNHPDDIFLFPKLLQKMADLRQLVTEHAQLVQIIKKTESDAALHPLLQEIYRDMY
Method: Determination of EC50 Values of PPAR Agonists in the Cellular PPARalpha Assay
(§1) The potency of substances which bind to human PPARalpha and activate it in an agonistic manner is analyzed using a stably transfected HEK cell line (HEK=human embryo kidney) which is referred to here as PPARalpha reporter cell line. It contains two genetic elements, a luciferase reporter element (pdeltaM-GAL4-Luc-Zeo) and a PPARalpha fusion protein (GR-GAL4-humanPPARalpha-LBD) which mediates expression of the luciferase reporter element depending on a PPARalpha ligand. The stably and constitutively expressed fusion protein GR-GAL4-humanPPARalpha-LBD binds in the cell nucleus of the PPARalpha reporter cell line via the GAL4 protein portion to the GAL4 DNA binding motifs 5′-upstream of the luciferase reporter element which is stably integrated in the genome of the cell line. There is only weak expression of the luciferase reporter gene in the absence of a PPARalpha ligand if fatty acid-depleted fetal calf serum (cs-FCS) is used in the assay. PPARalpha ligands bind and activate the PPARalpha fusion protein and thereby stimulate the expression of the luciferase reporter gene. The luciferase which is formed can be detected by means of chemiluminescence via an appropriate substrate.
The PPARalpha reporter cell line was prepared in two stages. Firstly, the luciferase reporter element was constructed and stably transfected into HEK cells. For this purpose, five binding sites of the yeast transcription factor GAL4 (Accession # AF264724) were cloned in 5′-upstream of a 68 bp-long minimal MMTV promoter (Accession # V01175). The minimal MMTV promoter section contains a […] and a TATA element in order to enable efficient transcription by RNA polymerase II. The cloning and sequencing of the GAL4-MMTV construct took place in analogy to the description of Sambrook J. et. al. (Molecular cloning, Cold Spring Harbor Laboratory Press, 1989). Then the complete Photinus pyralis gene (Accession # M15077) was cloned in 3′-downstream of the GAL4-MMTV element. After sequencing, the luciferase reporter element consisting of five GAL4 binding sites, MMTV promoter and luciferase gene was recloned into a plasmid which confers zeocin resistance in order to obtain the plasmid pdeltaM-GAL4-Luc-Zeo. This vector was transfected into HEK cells in accordance with the statements in Ausubel, F. M. et al. (Current protocols in molecular biology, Vol. 1-3, John Wiley & Sons, Inc., 1995).
In a second step, the PPARalpha fusion protein (GR-GAL4-humanPPARalpha-LBD was introduced into the stable cell clone described. For this purpose, initially the cDNA coding for the N-terminal 76 amino acids of the glucocorticoid receptor (Accession # P04150) was linked to the cDNA section coding for amino acids 1-147 of the yeast transcription factor GAL4 (Accession # P04386). The cDNA of the ligand-binding domain of the human PPARalpha receptor (amino acids S167-Y468; Accession # S74349) was cloned in at the 3′-end of this GR-GAL4 construct. The fusion construct prepared in this way (GR-GAL4-humanPPARalpha-LBD) was recloned into the plasmid pcDNA3 (Invitrogen) in order to enable constitutive expression therein by the cytomegalovirus promoter. This plasmid was linearized with a restriction endonuclease and stably transfected into the previously described cell clone containing the luciferase reporter element. The finished PPARalpha reporter cell line which contains a luciferase reporter element and constitutively expresses the PPARalpha fusion protein (GR-GAL4-human PPARalpha-LBD) was isolated by selection with zeocin (0.5 mg/ml) and G418 (0.5 mg/ml).
The activity of PPARalpha agonists is determined in a 3-day assay which is described below: […]

human PPARdelta = biological target: T2, human PPARdelta (Homo sapiens, UniProt Q03181); assay: Cellular PPARdelta assay (luciferase reporter, stably transfected HEK cell line); type: cell-based; settings: GR-GAL4-humanPPARdelta-LBD
T2 construct: amino acids S139-Y441; expressed in transfected cells; host or cells: HEK (human embryo kidney) cells, stably transfected; plasmid pcDNA3
T2 sequence (Q03181 139-441): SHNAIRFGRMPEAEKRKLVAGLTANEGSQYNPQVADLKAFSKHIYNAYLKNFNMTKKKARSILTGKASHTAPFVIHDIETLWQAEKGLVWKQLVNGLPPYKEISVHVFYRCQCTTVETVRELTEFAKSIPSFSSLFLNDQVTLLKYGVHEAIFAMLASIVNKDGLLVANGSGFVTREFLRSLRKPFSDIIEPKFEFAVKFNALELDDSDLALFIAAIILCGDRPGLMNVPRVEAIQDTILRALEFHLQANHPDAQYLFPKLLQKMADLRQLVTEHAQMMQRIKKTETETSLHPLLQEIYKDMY
Method: Determination of EC50 Values of PPAR Agonists in the Cellular PPARdelta Assay
as §1, with “PPARdelta” for “PPARalpha”, “In analogy to the assay described for PPARalpha, the PPARdelta reporter cell line also” for “It”, “(GR-GAL4-humanPPARdelta-LBD)” for “(GR-GAL4-humanPPARalpha-LBD)”, “GR-GAL4-humanPPARdelta-LBD” for “GR-GAL4-humanPPARalpha-LBD”, “little” for “weak”, “stimulate” for “stimulate the”
The production of the stable PPARdelta reporter cell line is based on a stable HEK-cell clone which was stably transfected with a luciferase reporter element. This step was already described above in the section “construction of the PPARalpha reporter cell line”. In a second step, the PPARdelta fusion protein (GR-GAL4-humanPPARdelta-LBD was stably introduced into this cell clone. For this purpose, the cDNA coding for the N-terminal 76 amino acids of the glucocorticoid receptor (Accession # P04150) was linked to the cDNA section coding for amino acids 1-147 of the yeast transcription factor GAL4 (Accession # P04386). The cDNA of the ligand-binding domain of the human PPARdelta receptor (amino acids S139-Y441; Accession # L07592) was cloned in at the 3′-end of this GR-GAL4 construct. The fusion construct prepared in this way (GR-GAL4-humanPPARdelta-LBD) was recloned into the plasmid pcDNA3 (Invitrogen) in order to enable constitutive expression by the cytomegalovirus promoter. This plasmid was linearized with a restriction endonuclease and stably transfected into the previously described cell clone containing the luciferase reporter element. The resulting PPARdelta reporter cell line which contains a luciferase reporter element and constitutively expresses the PPARdelta fusion protein (GR-GAL4-human PPARdelta-LBD) was isolated by selection with zeocin (0.5 mg/ml) and G418 (0.5 mg/ml).
The activity of PPARdelta agonists is determined in a 3-day assay in exact analogy to the procedure already described for the PPARalpha reporter cell line except that the PPARdelta reporter cell line and a specific PPARdelta agonist was used as a standard to control test efficacy.

[1] = obese, insulin resistant rhesus monkeys; cited from earlier work
[2] = diabetic animal model; cited from earlier work
[3] = two weeks clinical trials in healthy volunteers; cited from earlier work
[4] = rhesus monkeys; cited from earlier work
[5] = cynomoigus monkeys; cited from earlier work

| SMILES | EC50 (human PPARalpha) [nM] | EC50 (human PPARdelta) [nM] | other results |
| --- | --- | --- | --- |
| COCCN(Cc1ccc(-c2noc(=O)[nH]2)c(F)c1)c1nc2ccc(C(F)(F)F)cc2s1 [Example 28, 3-(2-Fluoro-4-{[(2-methoxy-ethyl)-(6-trifluoromethyl-benzothiazol-2-yl)-amino]-methyl}-phenyl)-4H-[1,2,4]oxadiazol-5-one] | 1020 | 60 | – |
| COCCN(CCc1ccc(-c2noc(=O)[nH]2)cc1)c1nc(-c2ccc(Cl)cc2)cs1 [Example 23, 3-(4-{2-[[4-(4-Chloro-phenyl)-thiazol-2-yl]-(2-methoxy-ethyl)-amino]-ethyl}-phenyl)-4H-[1,2,4]oxadiazol-5-one] | 820 | 650 | – |
| COCCCN(Cc1ccc(-c2noc(=O)[nH]2)c(F)c1)c1nc(-c2ccc(Cl)cc2)cs1 [Example 39, 3-(4-{[[4-(4-Chloro-phenyl)-thiazol-2-yl]-(3-methoxy-propyl)-amino]-methyl}-2-fluoro-phenyl) -4H-[1,2,4]oxadiazol-5-one] | 360 | 200 | – |
| Cc1cc(SCc2sc(-c3ccc(C(F)(F)F)cc3)nc2C)ccc1OCC(=O)O [GW501516] | – | – | HDL-cholesterol [1]: raises; insulin levels [1]: decreases; plasma LDL-cholesterol [1]: decreases; plasma triglycerides [1]: decreases |
| CN(C)CCN(Cc1ccc(-c2noc(=O)[nH]2)c(C(F)(F)F)c1)c1nc2ccc(C(F)(F)F)cc2s1 [Example 33, 3-(4-{[(2-Dimethylamino-ethyl)-(6-trifluoromethyl-benzothiazol-2-yl)-amino]-methyl}-2-trifluoromethyl-phenyl)-4H-[1,2,4]oxadiazol-5-one trifluoroacetate] | 1100 | 1800 | – |
| CCCc1c(OCCCOc2ccc(OCC(=O)O)cc2)ccc(C(C)=O)c1O [Example L-165041] | – | – | plasma cholesterol [2]: raises |
| COCCCN(CCc1ccc(-c2noc(=O)[nH]2)c(C)c1)c1nc2ccc(C(F)(F)F)cc2s1 [Example 14, 3-(4-{2-[(3-Methoxy-propyl)-(6-trifluoromethyl-benzothiazol-2-yl)-amino]-ethyl}-2-methyl-phenyl)-4H-[1,2,4]oxadiazol-5-one] | 70 | 4 | – |
| CCCc1c(OCCCSc2nnc(SCC(=O)O)s2)ccc(C(C)=O)c1O [YM-16638] | – | – | plasma lipids [3]: acts in a similar manner; plasma lipids [4]: significantly lowers; plasma lipids [5]: significantly lowers |
| CCCCN(Cc1ccc(-c2noc(=O)[nH]2)c(F)c1)c1nc2ccc(C(F)(F)F)cc2s1 [Example 24, 3-(4-{[Butyl-(6-trifluoromethyl-benzothiazol-2-yl)-amino]-methyl}-2-fluoro-phenyl)-4H-[1,2,4]oxadiazol-5-one] | 1350 | 270 | – |
| Cc1cc(CCN(CC2CCOCC2)c2nc3ccc(C(F)(F)F)cc3s2)ccc1-c1noc(=O)[nH]1 [Example 9, 3-(2-Methyl-4-{2-[(tetrahydro-pyran-4-ylmethyl)-(6-trifluoromethyl-benzothiazol-2-yl)-amino]-ethyl}-phenyl)-4H-[1,2,4]oxadiazol-5-one] | 60 | 20 | – |
